Measured values reported in patent US20250215493A1, “NUCLEOTIDES WITH ENZYMATICALLY CLEAVABLE 3'-O-GLYCOSIDE BLOCKING GROUPS FOR SEQUENCING” (Illumina, Inc., priority 2023, published 2025).

What was measured:
[1] = tested on: α-Mannosidase 92S, Bacteroides thetaiotaomicron; assay: Cleavage of 3′-glycoside thymidine by glycosyl hydrolases (HPLC); assay type: biochemical; conditions: 100 mM HEPES pH 7.0, 2 mM CaCl2, 37° C.
Procedure: (§1) The cleavage of the 3′-glycoside moiety from 3′-(β)-glucopyranoside thymidine, 3′-(β)-xylopyranoside thymidine and 3′-(α)-mannopyranoside thymidine using glycosyl hydrolases was tested by incubating the nucleoside substrate (200 μM) with the enzyme (2 μM) in buffer. At set timepoints, 50 μL aliquots of the reaction solution were taken and quenched with 50 μL of either 0.1 M EDTA or […]. The aliquots were then analysed by reverse phase HPLC (YMC-Triart C18 Column, 12 nm, 5 μm, 250×4.6 mm column) using a gradient from 0% to 8% acetonitrile in 0.1 M TEAB over 25 minutes, monitoring the disappearance of the 3′-glycopyranoside thymidine substrate peak and the appearance of the thymidine product peak.

[2] = tested on: α-Mannosidase 92B, Bacteroides thetaiotaomicron; assay: as above; assay type: biochemical; conditions: 100 mM HEPES pH 7.0, 2 mM CaCl2, 37° C.
Procedure: as §1

[3] = tested on: β-Glucosidase 3B, Cellvibrio japonicus; assay: as above; assay type: biochemical; conditions: 37° C.
Procedure: as §1

[4] = tested on: β-Glucosidase 1A, Thermobifida fusca; assay: as above; assay type: biochemical; conditions: 100 mM HEPES pH 7.0, 50° C.; 200 μM substrate, 2 μM enzyme
Procedure: as §1

[5] = tested on: β-Glucosidase 1A, Thermus thermophilus; assay: as above; assay type: biochemical; conditions: 100 mM sodium citrate pH 6.5, 50° C.; 200 μM substrate, 2 μM enzyme
Procedure: as §1

[6] = tested on: Xylosidase 3A, Sulfolobus solfataricus; assay: as above; assay type: biochemical; conditions: 100 mM MES pH 6.0, 50° C.
Procedure: as §1

[7] = tested on: Xylosidase 43A, Thermobifida fusca; assay: as above; assay type: biochemical; conditions: 100 mM sodium citrate pH 5.5, 50° C.
Procedure: as §1

[8] = tested on: Xylosidase 39A, Clostridium stercorarium; assay: as above; assay type: biochemical; conditions: 100 mM MES pH 6.0, 5 mM CaCl2, 50° C.
Procedure: as §1

C. japonicum ABFase = assay: Sequencing flowcell assay, recovery of % T call signal after enzymatic cleavage from DNA clusters; assay type: biochemical; conditions: 30 minutes, 60° C., pH 5.5
Procedure: (§2) A further example examined whether cleavage of 3′-ABF is feasible on DNA clusters on the surface of a sequencing flow cell. To this end, a sequencing assay monitoring the loss and recovery of % T call signal as read-out was carried out using an Illumina NextSeq 2000 instrument with a P2 flow cell. FIG. 4A illustrates the sequencing assay workflow using loss and recovery of % T call signal as readout, including: (1) The % T call signal baseline based on a standard Illumina Green ffT (e.g., ffT-3′-AZM-LN3-AF550POPOso) is first established with a series of SBS cycles using standard SBS chemistry; (2) incorporation by Pol A (SBS polymerase) of unlabeled dTTP with a different 3′-block (i.e., 3′-ABF dTTP or 3′-AOM dTTP used as control) results in the loss of this signal; (3) the % T signal is only partially recovered to around 75% relative to the initial baseline in subsequent standard cycles as around 25% DNA clusters are blocked by the alternative 3′-block which is uncleaved under standard SBS chemistry conditions; (4) injection of the cleavage mix specifically removing this block (i.e., ABFase removing the 3′-ABF or Pd catalyst removing 3′-AOM for the control experiment) followed by standard cycles resulting in the full recovery of the signal. […]

Pol A (SBS polymerase) = assay: Sequencing flowcell assay, loss of % T call signal on incorporation of unlabeled 3′ blocked dTTP; assay type: biochemical
Procedure: as §2

B. subtilis GH51 ABFase = assay: Enzymatic cleavage of 3′-ABF deoxythymidine by GH51 ABFase (HPLC); assay type: biochemical, Bacillus subtilis; conditions: 60° C., sodium phosphate pH 6.5; 200 μM substrate, 2 μM enzyme
Procedure: (§3) Candidate arabinofuranosidases (ABFases) were tested for hydrolysis of 3′-ABF. 3′-ABF deoxythymidine was preincubated in […] sodium citrate pH 5.5 or sodium phosphate pH 6.5 at designated temperatures for 5 minutes. Enzyme was added to the reaction so that the final reaction contained 200 μM substrate and 2 μM enzyme. At indicated time points, 50 μL aliquots were removed and quenched with 50 μL 0.1N NaOH prior to analysis by HPLC (YMC Triart C18, 250×4.5 mm, S-5 μm, 12 nm, 0.1M TEAB/100% Acetonitrile) to determine the percentage of enzymatically unblocked nucleotide (or % deprotection).
(§4) Various arabinofuranosidases (ABFases) included CAZy Glycoside Hydrolases family 51 (GH51) from Thermotoga maritima, Cellvibrio japonicus, Clostridium thermocellum, Bacillus subtilis, and Podosporina anserina. The molar ratio of enzyme to 3′-ABF deoxythymidine was 1:100 in all reaction mixes. The reaction using T. maritima ABFase was carried out at 80° C. with a sodium phosphate buffer to ensure a pH of 6.5. The reaction using C. japonicus ABFase was carried out at 37° C. with a sodium citrate buffer to ensure a pH of 5.5. The reaction using C. thermocellum ABFase was carried out at 65° C. with a sodium phosphate buffer to ensure a pH of 6.5. The reaction using B. subtilis ABFase was carried out at 60° C. with a sodium phosphate buffer to ensure a pH of 6.5. […]

[9] = 3′-ABF blocking group stability testing (staging in incorporation buffer, UPLC); assay type: physicochemical
Procedure: T Nucleoside was blocked with a 3′-O-α-L-arabinofuranoside (3′-ABF,
blocking groups. 1 mL of 3′ blocked T nucleosides at 0.1 mM were made in a solution of 50 mM glycine buffer (pH 9.9), 50 mM NaCl, and 1 mM EDTA. F
These solutions were incubated at 60° C. in a heating block for 1 month. Spontaneous cleavage of the 3′-ABF under incorporation conditions (50 mM Glycine pH 9.8 at 60° C.) was measured by staging 3′-ABF deoxythymine to evaluate the stability of 3′-ABF as a blocking group. At set time points, 40 μL aliquots were taken and analyzed by UPLC (conditions/column) to determine the percentage of blocked nucleotide remaining and the eventual formation of unblocked nucleotide.

T. maritima GH51 ABFase = assay: Enzymatic cleavage of 3′-ABF deoxythymidine by GH51 ABFase (HPLC); assay type: biochemical, Thermotoga maritima; conditions: 80° C., sodium phosphate pH 6.5; 200 μM substrate, 2 μM enzyme
Procedure: as §3, §4

C. japonicus GH51 ABFase = assay: as above; assay type: biochemical, Cellvibrio japonicus; conditions: 37° C., sodium citrate pH 5.5; 200 μM substrate, 2 μM enzyme
Procedure: as §3, §4

P. anserina GH51 ABFase = assay: as above; assay type: biochemical, Podosporina anserina; conditions: 60° C., sodium citrate pH 5.5; 200 μM substrate, 2 μM enzyme
Procedure: as §3, §4

[10] = molecular target: C. thermocellum GH51 ABFase (Acetivibrio thermocellus, UniProt A3DIH0); assay: as above; assay type: biochemical, Clostridium thermocellum; conditions: 65° C., sodium phosphate pH 6.5; 200 μM substrate, 2 μM enzyme
Procedure: as §3, §4

[11] = tested on: mutant DNA polymerase Pol A; assay: Primer extension assay, incorporation into DNA (33P-labelled primer:template, PAGE); assay type: biochemical
Procedure: The incorporation of the 5′-triphosphate 3′-[(β)-D-glucopyranosyl]thymidine and 5′-triphosphate 3′-[(β)-D-xylopyranosyl]thymidine into DNA by a mutant DNA polymerase Pol A was tested using a primer extension assay. Briefly, a ^33P-labelled DNA primer:template (20 nM) was incubated with the DNA polymerase ([…]) and the nucleotide triphosphates (1 μM) in buffer (50 mM Glycine pH 9.6, 50 mM NaCl, 9 mM MgSO4, 1 mM EDTA) at 60° C. The rate was determined by calculating the percentage of incorporation compared to the initial primer template band and the incorporation results are shown in FIG. 6B.

[12] = 1 μM nucleotide, 50 mM Glycine pH 9.6, 60° C.

C. thermocellum GH51 ABFase, sequence (A3DIH0 whole entry): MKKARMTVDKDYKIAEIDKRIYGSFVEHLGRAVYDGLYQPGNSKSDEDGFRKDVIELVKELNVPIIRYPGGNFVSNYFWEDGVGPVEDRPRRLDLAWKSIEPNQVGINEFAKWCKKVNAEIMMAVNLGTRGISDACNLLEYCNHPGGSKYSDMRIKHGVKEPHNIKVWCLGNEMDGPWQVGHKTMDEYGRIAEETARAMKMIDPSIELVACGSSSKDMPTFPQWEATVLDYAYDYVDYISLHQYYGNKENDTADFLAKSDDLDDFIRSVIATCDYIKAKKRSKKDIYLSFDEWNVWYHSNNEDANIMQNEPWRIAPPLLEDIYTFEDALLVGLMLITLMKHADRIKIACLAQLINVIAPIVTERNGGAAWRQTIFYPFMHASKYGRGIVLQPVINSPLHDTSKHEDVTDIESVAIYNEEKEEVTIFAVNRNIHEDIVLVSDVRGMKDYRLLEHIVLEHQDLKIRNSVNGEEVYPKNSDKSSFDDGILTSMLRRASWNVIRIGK

Cc1cn([C@H]2CC(O[C@H]3OC(CO)[C@@H](O)C(O)C3O)[C@@H](CO)O2)c(=O)[nH]c1=O (stereo partly drawn) [3′-(α)-mannopyranoside thymidine, 3′-[(α)-D-mannopyranosyl]thymidine]
cleavage of the 3′-mannopyranoside group [1]: not observed
cleavage of the 3′-mannopyranoside group [2]: not observed

Cc1cn([C@H]2CC(O[C@@H]3OC(CO)[C@@H](O)C(O)C3O)[C@@H](CO)O2)c(=O)[nH]c1=O (stereo partly drawn) [3′-(β)-glucopyranoside thymidine, 3′-[(β)-D-glucopyranosyl]thymidine]
time to complete cleavage of the 3′-glucopyranoside group ([3]; pH 6.5 (100 mM sodium citrate)): approximately 2 hours
time to complete cleavage of the 3′-glucopyranoside group ([3]; pH 7.5 (100 mM sodium phosphate)): approximately 2 hours
time to complete cleavage of the 3′-glucopyranoside group [4]: less than 2 minutes
time to complete cleavage of the 3′-glucopyranoside group [5]: less than 2 minutes

Cc1cn([C@H]2CC(O[C@@H]3OC[C@@H](O)C(O)C3O)[C@@H](CO)O2)c(=O)[nH]c1=O (stereo partly drawn) [3′-(β)-xylopyranoside thymidine, 3′-[(β)-D-xylopyranosyl]thymidine]
cleavage of the 3′-xylopyranoside group [6]: observed
time to full conversion of the substrate [6]: > 22 h
cleavage of the 3′-xylopyranoside group [7]: observed
time to full conversion of the substrate [7]: > 22 h
cleavage of the 3′-xylopyranoside group [8]: observed
time to full conversion of the substrate [8]: > 22 h

Cc1cn([C@H]2C[C@H](O[C@@H]3O[C@@H](CO)[C@H](O)[C@H]3O)[C@@H](COP(=O)(O)OP(=O)(O)OP(=O)(O)O)O2)c(=O)[nH]c1=O [3′-ABF TTP, 3′-O-(α-L-arabinofuranosyl)-deoxythymidine-5′-triphosphate]
recovery of the initial % T fluorescence signal after enzymatic cleavage (C. japonicum ABFase): full recovery
% T fluorescence signal upon incorporation of the unlabeled nucleotide (Pol A (SBS polymerase); NextSeq 2000, P2 flow cell): fully drops
% T fluorescence signal recovered when standard SBS cycles resume (Pol A (SBS polymerase); of the initial baseline, before enzymatic cleavage): around 75%

Cc1cn([C@H]2C[C@H](O[C@@H]3O[C@@H](CO)[C@H](O)[C@H]3O)[C@@H](CO)O2)c(=O)[nH]c1=O [3′-ABF-dT, 3′-O-(α-L-arabinofuranosyl)-deoxythymidine]
observed reaction constant kobs (B. subtilis GH51 ABFase): 0.035 s⁻¹
percentage of remaining blocked nucleoside ([9]; after 31 days of staging at 60° C., 0.1 mM in 50 mM glycine buffer (pH 9.9), 50 mM NaCl, 1 mM EDTA): About 100%
stability of 3′-blocking group compared to AZM in solution ([9]; higher stability vs 3′-AZM-dT, 60° C., glycine buffer): 80-100 fold
observed reaction constant kobs (T. maritima GH51 ABFase): 0.15 s⁻¹
observed reaction constant kobs (C. japonicus GH51 ABFase): 0.03 s⁻¹
observed reaction constant kobs (P. anserina GH51 ABFase): 0.19 s⁻¹
observed reaction constant kobs [10]: 0.01 s⁻¹

Cc1cn([C@H]2CC(O[C@@H]3OC(CO)[C@@H](O)C(O)C3O)[C@@H](COP(=O)(O)OP(=O)(O)OP(=O)(O)O)O2)c(=O)[nH]c1=O (stereo partly drawn) [5′-triphosphate 3′-[(β)-D-glucopyranosyl]thymidine]
incorporation observed [11, 12]: no detectable incorporation
substrate for Pol A [11, 12]: is a poor substrate for Pol A

Cc1cn([C@H]2CC(O[C@@H]3OC[C@@H](O)C(O)C3O)[C@@H](COP(=O)(O)OP(=O)(O)OP(=O)(O)O)O2)c(=O)[nH]c1=O (stereo partly drawn) [5′-triphosphate 3′-[(β)-D-xylopyranosyl]thymidine]
substrate for Pol A [11, 12]: is a substrate for Pol A
rate of incorporation ([11]; compared to 5′-triphosphate 3′-[(α)-L-arabinofuranosyl]thymidine and 5′-triphosphate 3′-allyloxymethyl thymidine, 60° C., pH 9.6): slower
